From US7781565B2 (priority 2006, dated 2010)
“Also recorded” adds a separate entry of the source.

These substances were tested on NCI-60 cell lines.
Assay type: cell-based, human

Substance	Cell Line with which the peptide (and its tripeptide motif) is associated	Cell Line (NCI-60 cell line the peptide and its motif are associated with)	Cell Line the peptide is associated with (peptide recovered from phage library selection on this NCI-60 cell line)	Cell Line (NCI-60 cell line the peptide is associated with)
DWWAGVR	CCRF-CEM Leukemia	–	–	–
DYVGAGT	–	DU-145 Prostate	–	–
EADPGAV	–	UACC 257 Melanoma	–	–
EAGPRGV	–	–	BT-549 Breast	–
EAGVRLN	–	OVCAR-4 Ovarian	–	–
EAVSGRR	–	–	HS 578 T Breast	–
EAVSRGS	K-562-Leukemia	–	–	–
EFAVAGR	SR Leukemia	–	–	–
EFTRRAS	A549-Lung	–	–	–
EGARASD	Hop-92-Lung	–	–	–
EGGRTHW	–	–	–	HT-29 Colon
EGLVSVV	Molt-4-Leukemia	–	–	–
EGLVVFE	–	–	–	SNB-19 CNS; also recorded: SF-539 CNS
EGRLMLA	–	MALME-3M Melanoma	–	–
EGSGVDC	RPMI-8226-Leukemia	–	–	–
EGSVDAH	–	–	–	SW620-Colon
EGTSGSV	–	–	–	KM-12C Colon
EGVRGVF	–	A498 Renal	A498 Renal	–
EHPAGGM	A549-Lung	–	–	–
EHYRLRS	–	–	–	HT-29 Colon
ELGLRVP	–	OVCAR-8 Ovarian	–	–
ELHPRGV	K-562-Leukemia	–	–	–

Substance	Cell Line with which the peptide (and its tripeptide motif) is associated	Cell Line (NCI-60 cell line the peptide and its motif are associated with)	Cell Line the peptide is associated with (peptide recovered from phage library selection on this NCI-60 cell line)	Cell Line (NCI-60 cell line the peptide is associated with)
ELRRLLS	–	–	TK-10 Renal	–
ELWASLG	–	–	–	HT-29 Colon
EMGSSRG	–	–	–	HT-29 Colon
EPDGVRS	CCRF-CEM Leukemia	–	–	–
EQLSGVR	CCRF-CEM Leukemia	–	–	–
ERARGYP	SR Leukemia	–	–	–
ERASQTA	K-562-Leukemia	–	–	–
ERGSPSR	H460-Lung	–	–	–
ERGVFVY	–	–	T-47D Breast	–
ERVSAAV	–	OVCAR-3 Ovarian	–	–
ERYYLRS	–	–	MCF-7 Breast	–
ESARGAL	–	OVCAR-4 Ovarian	–	–
ESATGVS	–	–	MDA-MB-231 Breast	–
EVASGLV	–	SK-MEL-2 Melanoma	–	–
EVGGGLT	CCRF-CEM Leukemia	–	–	–
EVIGSGI	A549-Lung	–	–	–
EVLVSGD	Molt-4-Leukemia	–	–	–
EVLWGGR	–	–	–	SF-268 CNS
EVRSRGS	EKVX-Lung	–	–	–
EWHAASG	–	SK-MEL-2 Melanoma	–	–
FAAGAGS	–	786-0 Renal	–	–
FAASGVL	–	UACC 257 Melanoma	–	–

Substance	Cell Line with which the peptide (and its tripeptide motif) is associated	Cell Line (NCI-60 cell line the peptide and its motif are associated with)	Cell Line the peptide is associated with (peptide recovered from phage library selection on this NCI-60 cell line)	Cell Line (NCI-60 cell line the peptide is associated with)
FAGAGVR	–	SK-OV-3-3 Ovarian	–	–
FAGGSTD	HL-60-Leukemia	–	–	–
FAGRAPR	–	–	ACHN Renal	–
FAGRVPS	RPMI-8226-Leukemia	–	–	–
FAGYGVL	–	–	–	SNB-19 CNS; also recorded: SF-539 CNS
FAQRRVS	–	–	SN12C Renal	–
FAWGGRG	K-562-Leukemia	–	–	–
FDARGGL	CCRF-CEM Leukemia	–	–	–
FDPGGLR	–	–	SN12C Renal	–
FDRAVAN	Hop-62-Lung	–	–	–
FDRGSLT	–	–	–	SF-295 CNS
FDRGVEA	K-562-Leukemia	–	–	–
FEDLLSL	–	–	–	MALME-3M Melanoma
FEGGRSG	–	M14 Melanoma	–	–
FFGGSRA	K-562-Leukemia	–	–	–
FFGRVGI	Molt-4-Leukemia	–	–	–
FFPAGGP	EKVX-Lung	–	–	–
FGGRSLS	–	–	–	SNB-75 CNS
FGGSGRG	–	–	–	LOX-IMVI Melanoma
FGGSGVL	H460-Lung	–	–	–
FGGSMAP	–	SK-MEL-2 Melanoma	–	–
FGIGRGV	–	SK-MEL-5 Melanoma	–	–

Substance	Cell Line with which the peptide (and its tripeptide motif) is associated	Cell Line (NCI-60 cell line the peptide and its motif are associated with)	Cell Line the peptide is associated with (peptide recovered from phage library selection on this NCI-60 cell line)	Cell Line (NCI-60 cell line the peptide is associated with)
FGLGSSR	Hop-62-Lung	–	–	–
FGLRMSN	–	–	ACHN Renal	–
FGLRNSR	HL-60-Leukemia	–	–	–
FGLRSRL	SR Leukemia	–	–	–
FGRLLSP	–	UACC62 Melanoma	–	–
FGSSNRS	–	–	–	SF-268 CNS
FGVLFRS	EKVX-Lung	–	–	–
FGVSGGS	–	–	MDA-MB-231 Breast	–
FGVSQVH	–	–	CAIK-1 Renal	–
FHFGGSG	–	OVCAR-5 Ovarian	–	–
FHIWGGR	–	–	MDA-MB-231 Breast	–
FHVAGGS	SR Leukemia	–	–	–
FIAGGVG	–	–	ACHN Renal	–
FISAGGW	–	–	MDA-MB-231 Breast	–
FLHMRLS	–	M14 Melanoma	–	–
FLLLSHR	–	–	SN12C Renal	–
FLLRSSF	SR Leukemia	–	–	–
FLLSRSA	–	–	NCI/ADR-RES Breast	–
FLRGVEL	–	SK-OV-3-3 Ovarian	–	–
FLRSLSL	–	SK-MEL-5 Melanoma	–	–
FLRVGEL	Hop-62-Lung	–	–	–
FMGAGFA	HL-60-Leukemia	–	–	–

Substance	Cell Line with which the peptide (and its tripeptide motif) is associated	Cell Line (NCI-60 cell line the peptide and its motif are associated with)	Cell Line the peptide is associated with (peptide recovered from phage library selection on this NCI-60 cell line)	Cell Line (NCI-60 cell line the peptide is associated with)
FMTYGSG	–	OVCAR-4 Ovarian	–	–
FPARGED	–	–	A498 Renal	–
FPAVSTE	–	–	T-47D Breast	–
FPGSAGS	–	–	ACHN Renal	–
FQRSGRL	–	SK-MEL-28 Melanoma	–	–
FRAASLL	–	–	MDA-MB-231 Breast	–
FRAGVSH	–	–	–	HCT-116 Colon
FRALGGL	–	–	–	SNB-75 CNS
FRASLQY	Hop-62-Lung	–	–	–
FRASSEV	Hop-62-Lung	–	–	–
FRFVRGS	–	–	HS 578 T Breast	–
FRVSLGY	–	–	ACHN Renal	–
FSGDAVS	–	–	–	HT-29 Colon
FSGLVVA	–	–	–	HT-29 Colon
FSKMRAS	–	DU-145 Prostate	–	–
FSLGSSP	–	–	UO31 Renal	–
FSLVSFV	–	SK-MEL-2 Melanoma	–	–
FSNARGY	–	DU-145 Prostate	–	–
FSPRGSV	–	–	–	SNB-19 CNS; also recorded: SF-539 CNS
FSSKRGV	RPMI-8226-Leukemia	–	–	–
FTLRVDK	K-562-Leukemia	–	–	–
FTRGAAS	–	SK-MEL-2 Melanoma	–	–

Substance	Cell Line with which the peptide (and its tripeptide motif) is associated	Cell Line (NCI-60 cell line the peptide and its motif are associated with)	Cell Line the peptide is associated with (peptide recovered from phage library selection on this NCI-60 cell line)	Cell Line (NCI-60 cell line the peptide is associated with)
FTRGGLS	–	–	–	SNB-75 CNS
FTSGVSW	–	–	–	COLO-205-Colon
FVARLRV	–	–	TK-10 Renal	–
FVDIAGS	H23-Lung	–	–	–
FVGRVGE	–	–	A498 Renal	–
FVGSRGV	–	–	–	LOX-IMVI Melanoma
FVPRGSY	–	OVCAR-4 Ovarian	–	–
FWISRAS	RPMI-8226-Leukemia	–	–	–
FWRGSVP	A549-Lung	–	–	–
GAAASGY	–	–	–	SW620-Colon
GAGGGVG	–	–	MDA-MB-435-Breast	–
GAGGMAR	RPMI-8226-Leukemia	–	–	–
GAGGVDV	–	786-0 Renal	–	–
GAGLGVS	–	IGROV1 Ovarian	–	–
GAGLSTS	H322-Lung	–	–	–
GAGRFPH	–	786-0 Renal	–	–
GAGRGDR	–	–	–	SF-295 CNS
GAGRGTP	–	–	–	HT-29 Colon
GAGRTVM	SR Leukemia	–	–	–
GAGSFSS	–	SK-MEL-2 Melanoma	–	–
GAGSGRT	–	–	HS 578 T Breast	–
